# Settings: nicotine 1.25 mg/kg (1 female) and 1.0 mg/kg (3 females) single i.v.
# Method: One control group of animals received a single i.v. dose of the vehicle at 5 mL/kg. Ten rats (5 males and 5 females) were dosed per group. […] One female received a single i.v. dose of 1.25 mg/kg, and 3 females received a single i.v. dose of 1.0 mg/kg.
# Following the tolerability study, an additional group was added to the study. […] All animals were observed daily. Body weight and food consumption was measured daily, with any abnormal observations noted. Average daily body weights and food consumption was tabulated with standard deviation calculated.
structure (smiles),measurement,value
"CN1CCCC1c1cccnc1.O=C(O)C(O)C(O)C(=O)O (single isomer, unassigned; (-)) [Nicotine, (−) Nicotine hydrogen tartrate, reference compound]",clinical signs in tolerability study,"experienced severe tremors upon completion of dosing, but all returned to normal by 20 minutes post dose"
